# Patent US8859009B2, “Method of fixing antibacterial agent and article obtained by the method” (Hiroshima University, priority 2008, dated 2014)
# System: strain GDH18 of Candida Albicans
# Assay: Antibacterial-property test on hemocytometer cover glass test pieces (colour change of agar), Example 3
# Format: cell-based
# Description: A hemocytometer cover glass was used as a test piece of an article on which an antibacterial agent is fixed. A strain GDH18 of Candida Albicans was used as the bacteria for use in the antibacterial-property test. The bacteria was incubated on Sabouraud agar for 18 hours and a bacteria solution having bacteria concentration of 1×10^6 cells/mL was prepared using ultra pure water (MQ water). The test pieces were immersed for 1 minute in approximately 30 mL of ozone water (0.4 to 0.6 ppm) produced by using ultra pure water and “Ozone Dash” manufactured by Ozone Total System Co., Ltd. The test pieces were then drained on a filtering paper and immersed for 5 minutes in following aqueous solutions, respectively: Each test piece was then taken out of the aqueous solution, immediately washed with water such that excess antibacterial composition was removed, whereby test pieces for the antibacterial-property test were obtained. […] Each test piece was left for 2 hours at the room temperature to wait for sedimentation of the bacteria. Thereafter, 5 mL of Sabouraud agar containing chlorophenol red as a pH indicator (Candida yellow agar, manufactured by Fuji Pharma Co., Ltd.) was added to each test piece and the respective test pieces were continually incubated at 37° C. […] Antibacterial property was evaluated using such change in color as described above of the agar as an index.
smiles,measurement,setting,value
"CCCCCCCCCCCCCCCCCC[N+](C)(C)CCC[Si](OCC)(OCC)OCC.[Cl-] [EtAC, octadecyldimethyl(3-triethoxysilylpropyl)ammonium chloride]",antibacterial performance,"control without ozone water treatment, EtAC treatment 5 minutes",hardly exhibited antibacterial performance
same,color of the agar,"upper control: immersed in MQ water (no ozone water), then 70% ethanol solution of EtAC 5 minutes, 45 hours",strongly yellow
same,number of bacteria cells,"upper control: immersed in MQ water (no ozone water), then 70% ethanol solution of EtAC 5 minutes, 45 hours, from agar colour",≥ 5e+07 mL⁻¹
